Article PMC12040169 (PLOS Biology, 2025)

assay: in vitro; conditions: human, hela cells, % viability

In order of falling viability at 28.5 h, 10 µM:
1. CC(=O)Nc1ccc(Nc2ncnc3c2cnn3-c2ccc(C)cc2C)cc1 [CBK265803]  116%
2. Cc1ccc([N+](=O)[O-])cc1NC(=O)CSc1nnc(Cc2ccccc2)o1 [CBK265889]  116%
3. CN1CCN(C(=O)CN(Cc2ccc(Cl)cc2)S(=O)(=O)c2ccc(Br)cc2)CC1 [CBK265771]  113%
4. Cc1ccc(C)c(Oc2coc3cc(OCC(=O)Nc4ccccc4C(C)C)ccc3c2=O)c1 [CBK265906]  113%
5. CCOc1ccc(-c2nc(C#N)c(NCCN3CCOCC3)o2)cc1 [CBK265867]  112%
6. COC(=O)c1ccc(NC(=O)c2ccccc2-c2ccccc2C(=O)O)cc1 [CBK265759]  110%
7. Cc1cc(NC(=O)CCCN2C(=O)c3cccc4cccc(c34)C2=O)n(-c2ccccc2)n1 [CBK265874]  109%
8. CCC(=O)c1cccc2c1NC=C1C(=O)CC(C)(C)CC1=N2 [CBK265821]  108%
9. O=C(CSc1nnc(-c2ccco2)c(-c2ccco2)n1)Nc1ccccc1[N+](=O)[O-] [CBK265762]  107%
10. NS(=O)(=O)c1ccc(NC(=S)NCCN2CCOCC2)cc1 [CBK265818]  107%
11. O=C(CN1CCN(c2ccccc2)CC1)Nc1ccc(Cl)cc1C(=O)c1ccccc1 [CBK265827]  107%
12. N#Cc1nc(-c2ccccc2F)oc1NCCCN1CCOCC1 [CBK265881]  107%
13. COc1ccc(OC)c(NC(=O)CSc2nnc(-c3ccc(N)cc3)n2C)c1 [CBK265872]  106%
14. O=c1c2ccccc2nc(/C=C/c2cccnc2)n1Cc1ccccc1 [CBK265876]  106%
15. CC(C)(C)CC(=O)O/N=C(\N)c1ccccn1 [CBK265779]  105%
16. Cc1ccc(N(C(=O)COc2ccc(C(C)(C)C)cc2)C2C=CS(=O)(=O)C2)cc1 (stereo not drawn) [CBK265811]  105%
17. Cc1sc2ncnc(NCCOCCO)c2c1C [CBK265907]  104%
18. CCCC(=O)Nc1ccccc1NC(=O)c1ccc2c(c1)OCO2 [CBK265841]  103%
19. Cn1c(SCC(=O)Nc2ccc(N3CCOCC3)c(Cl)c2)nnc1-c1ccc(N)cc1 [CBK265777]  102%
20. CCC1C=CCC(C(=O)O)C1C(=O)Nc1ccc(C(=O)N2CCOCC2)cc1 (stereo not drawn) [CBK265798]  102%
21. Cc1ccc(CN(CC(=O)N2CCC(C(N)=O)CC2)S(=O)(=O)c2ccc(Br)cc2)cc1 [CBK265813]  102%
22. CCC(Sc1nnc(-c2ccc([N+](=O)[O-])cc2)n1C)C(=O)Nc1ccc(Cl)cc1 (stereo not drawn) [CBK265785]  101%
23. C/C(=C(/C(=O)N(N)c1nc2ccccc2s1)C(=O)C(F)(F)F)N1CCC(C(N)=O)(N2CCCCC2)CC1 [CBK265787]  101%
24. COC(Cc1nc2ccccc2s1)C(=O)O (stereo not drawn) [CBK265806]  101%
25. Cc1ccc(-c2noc(CN3CCN(c4ccccc4)CC3)n2)cc1 [CBK265924]  101%
26. COc1ccccc1NC(=O)c1ccc(OCC(=O)O)cc1 [CBK265849]  100%
27. CC1=CCC(C(=O)O)C(C(=O)Nc2ccccc2NC(=O)c2ccc(C(F)(F)F)cc2)C1 (stereo not drawn) [CBK265794]  99.9%
28. CN1CCN(NC(=O)c2cccc(COc3ccccc3Cl)c2)CC1 [CBK265765]  99.2%
29. CC(C)c1ccc(OCC(=O)NCc2ccccn2)c(Br)c1 [CBK265910]  99.2%
30. O=C(CN(Cc1ccc(Cl)cc1Cl)S(=O)(=O)c1ccccc1)Nc1c(F)cccc1F [CBK265801]  99.1%
31. CCC(Sc1nc(N)cc(=O)[nH]1)C(=O)Nc1ccc2ccccc2c1 (stereo not drawn) [CBK265761]  98.9%
32. Cc1cccc(-n2c(SCC(=O)Nc3ccc(Br)cc3F)nnc2-c2ccccc2)c1 [CBK265903]  98.9%
33. CC1CCc2c(sc(NC(=O)c3ccccc3)c2CN2CCCC2)C1 (stereo not drawn) [CBK265908]  98.7%
34. COc1ccccc1NC(=O)c1sc2ncn(CC(=O)NC3CCCCC3)c(=O)c2c1C [CBK265788]  98.5%
35. Cc1ccc(-n2c(SCC(=O)NCc3ccccc3)nnc2-c2ccc(Cl)cc2)cc1C [CBK265909]  97.9%
36. CCn1nccc1C(=O)NC1=C(C#N)CCC1 [CBK265836]  97.6%
37. CCOC(=O)c1cnc2ccc(F)cc2c1NCc1ccco1 [CBK265834]  97%
38. O=C(NC(=S)Nc1ccc(-c2nc3ncccc3o2)cc1)c1ccc2c(c1)OCCO2 [CBK265812]  96.4%
39. COc1cccc(CNn2cnnc2S)c1OCc1ccccc1 [CBK265781]  96.3%
40. Cc1ccc(C(C)C)c(OCc2ccc(C(=O)Nc3ccc(S(N)(=O)=O)cc3C)o2)c1 [CBK265833]  96.3%
41. O=S(=O)(NCC1CCCO1)c1ccc2oc3ccc(S(=O)(=O)NCC4CCCO4)cc3c2c1 (stereo not drawn) [CBK265914]  96.2%
42. CCn1cc(C(=O)O)c(=O)c2cnc(N3CCN(C(=S)NC(=O)c4cccs4)CC3)nc21 [CBK265753]  95.7%
43. CN(C)CCCNc1cc(Cl)c(S(=O)(=O)N2CCCCC2)cc1C(=O)O [CBK265784]  95.5%
44. COc1ccc([N+](=O)[O-])cc1Nc1nc(-c2ccccc2)nc2ccccc12 [CBK265913]  95.4%
45. CCn1c(=O)[nH]c2cc(C(=O)NCCc3ccccc3)ccc2c1=O [CBK265773]  95.2%
46. O=c1c(-c2ccccc2)c(C(F)(F)F)oc2c(CN3CCN(Cc4ccccc4)CC3)c(O)ccc12 [CBK265808]  95%
47. COC(=O)C1C(=O)NC(SCC(=O)Nc2cccc(Cl)c2C)=C(C#N)C1c1ccccc1F (stereo not drawn) [CBK265830]  94.9%
48. CCn1ncc(Br)c1C(=O)Nc1ccc(Cl)cn1 [CBK265826]  94.8%
49. O=C(CN1CCN(Cc2ccc3c(c2)OCO3)CC1)Nc1ccc(Oc2ccccc2)cc1 [CBK265864]  94%
50. Cc1ccccc1OCc1nnc(SCC(=O)c2ccc3c(c2)Cc2ccccc2-3)n1C [CBK265829]  93.9%
51. CCN1CCN(c2ncnc3c2cnn3-c2cccc(C)c2)CC1 [CBK265814]  93.8%
52. Cc1ccc(S(=O)(=O)NC2c3cccc4cccc(c34)C2Sc2nnnn2-c2ccccc2)cc1 (stereo not drawn) [CBK265884]  93.1%
53. COc1ccc(C(=O)Nc2ccc3c(c2)C(=O)N(CCC(=O)O)C3=O)cc1 [CBK265921]  93.1%
54. Cc1ccc(-c2nc3ccccc3[nH]2)cc1NC(=O)CCCc1ccccc1 [CBK265789]  92.9%
55. CC1=CCC(C(=O)O)C(C(=O)Nc2cccnc2)C1 (stereo not drawn) [CBK265895]  92.9%
56. O=C(c1cccc(S(=O)(=O)N2CCOCC2)c1)N(Cc1ccc(F)cc1)Cc1ccco1 [CBK265885]  92.8%
57. O=c1[nH]c2ccc(Cl)cc2c(-c2ccccc2)c1N1CCN(Cc2ccc3c(c2)OCO3)CC1 [CBK265776]  92.3%
58. CCSc1nc2ccccc2n1C(=O)c1ccc(S(=O)(=O)N2CCCCCC2)cc1 [CBK265825]  91.6%
59. OCCN1CCN(C(S)=NC2CCCC2)CC1 [CBK265886]  91.6%
60. Cc1ccc(-c2ccc(CCC(=O)O)n2N=C(N)S)cc1 [CBK265870]  91%
61. CN(C)CCNC(=O)c1ccc(COc2ccc(Cl)cc2Cl)cc1 [CBK265878]  90.9%
62. N#Cc1ccccc1CSc1nc2ccc(NC(=O)c3ccc([N+](=O)[O-])cc3)cc2s1 [CBK265868]  90.7%
63. C/C(O)=C1/C(=O)N(c2nc3ccccc3s2)N=C1CC(=O)O [CBK265828]  90.5%
64. NC(=O)C1(N2CCCCC2)CCN(C(=S)Nc2ccc(S(N)(=O)=O)cc2)CC1 [CBK265900]  90.5%
65. CN(C)S(=O)(=O)N(CC(=O)Nc1cccc([N+](=O)[O-])c1)c1ccccc1 [CBK265904]  90.2%
66. O=C(Nc1ccc2c(c1)OCCO2)c1cc(S(=O)(=O)N2CCCCC2)c(Cl)cc1Cl [CBK265790]  90%
67. O=C(CN1CCN(c2ccccc2)CC1)Nc1ccc([N+](=O)[O-])cc1C(=O)c1ccccc1 [CBK265799]  89.6%
68. NC(=O)C1CCN(CC(=O)Nc2ccc([N+](=O)[O-])cc2C(=O)c2ccccc2)CC1 [CBK265782]  89.3%
69. CC(=O)Nc1ccc(-c2nnc(SCc3c(Cl)cccc3[N+](=O)[O-])n2C)cc1 [CBK265823]  89.1%
70. Cc1ccccc1OCC(=O)NN1CCN(C)CC1 [CBK265783C]  89%
71. Cc1nn(Cc2ccc(C(=O)N3CCN(Cc4ccccc4)CC3)o2)c(C)c1Br [CBK265796C]  88.8%
72. NC(=O)c1c(NC(=O)c2ccc(COc3ccc4ccccc4c3)o2)sc2c1CCCC2 [CBK265871]  88.5%
73. COc1cccc(C(=O)Nc2ccccc2C(=O)Nc2cccc(C(=O)O)c2C)c1 [CBK265768]  88.1%
74. CN(C)S(=O)(=O)c1cc(C(=O)NCCc2c[nH]c3ccccc23)c(Cl)cc1Cl [CBK265883]  87.5%
75. CN(CC(=O)N1CCN(Cc2ccc3c(c2)OCO3)CC1)S(=O)(=O)c1ccccc1 [CBK265791]  87%
76. NCCc1c[nH]c2ccc(OCC(=O)O)cc12 [CBK265853C]  86.2%
77. O=C(Nc1ccc(Cc2ccc(O)c(NC(=O)c3ccccc3F)c2)cc1O)c1ccccc1F [CBK265766]  85.4%
78. Cn1c(Cc2cccc3ccccc23)nnc1SCC(=O)Nc1ccccc1F [CBK265856]  85%
79. Cn1c(SCC(=O)Nc2ccc(Br)cc2C(F)(F)F)nnc1-c1ccncc1 [CBK265905]  84.4%
80. COc1ccc(Cc2nnc(SCC(=O)Nc3ccc(Br)c(C)c3)n2C)cc1 [CBK265816]  83.9%
81. Cc1cc2nnc(SCC(=O)Nc3ccc4c(c3)OCO4)n2c2ccccc12 [CBK265926]  82.8%
82. CCOc1cccc(CNn2cnnc2)c1OCc1ccccc1 [CBK265824]  81.2%
83. Cc1ccc2nc(-c3ccc(NC(=O)CSc4nc(-c5ccccc5)cc(=O)[nH]4)cc3)sc2c1 [CBK265861]  78.5%
84. Cc1ccc(S(=O)(=O)NC2c3cccc4cccc(c34)C2Sc2n[nH]c(N)n2)cc1 (stereo not drawn) [CBK265875]  77.6%
